A word on the logD: it is lipophilicity at a set pH, counting ionised and neutral species. Lower therefore signals lower lipophilicity.

We go through 43 compounds from the SangsterLogP compilation.

This data set in a line: method code SF-AS, from PMID: 744242. Particulars: pH 5.6.
Regarding `NC(=O)CCn1nc2ccccc2n1`, the logD worked out at 0.66.

Consider `CCOC(=O)CCn1nc2ccccc2n1`, for which the logD was determined as 2.12.

With `CCCn1nnc2ccccc21`, the logD is 2.13.

In turn, `CCCCC(C)n1nc2ccccc2n1` (stereo not drawn) displayed a logD of 3.78.

For the compound `CCOC(=O)CCCCn1nnc2ccccc21`, the logD is 2.2.

`CCOC(=O)CCCn1nnc2ccccc21` displayed a logD of 1.86.

`CCC(C)n1nnc2ccccc21` (stereo not drawn): the pH-dependent lipophilicity (logD) was determined as 2.31.

Consider `NC(=O)CCCn1nnc2ccccc21`, for which the logD came to 0.37.

`NC(=O)CCCCn1nnc2ccccc21` registered a logD of 0.58.

The compound `NC(=O)CCCCCn1nnc2ccccc21` gave a log distribution coefficient (logD) of 0.79.

For the compound `CCOC(=O)Cn1nc2ccccc2n1`, the logD is 1.85.

In turn, `CCn1nnc2ccccc21` had a logD of 1.58.

For `CCCC(C)n1nnc2ccccc21` (stereo not drawn), the logD stood at 2.95.

`CCCCn1nc2ccccc2n1` had a logD of 3.12.

`CCCCCn1nc2ccccc2n1` showed a logD of 3.63.

In the case of `CCOC(=O)CCCn1nc2ccccc2n1`, the logD was 2.41.

Consider `CCOC(=O)CCCCCn1nc2ccccc2n1`, for which the logD came to 3.17.

For the compound `NC(=O)Cn1nc2ccccc2n1`, the pH-dependent lipophilicity (logD) worked out at 0.28.

The compound `OCCCn1nc2ccccc2n1` showed a logD of 1.4.

As to `CC(C)n1nc2ccccc2n1`, the logD came to 2.54.

In turn, `NC(=O)Cn1nnc2ccccc21` had a logD of -0.11.

Compound `CCCCCCn1nnc2ccccc21` registered a logD of 3.7.

`NC(=O)CCCCCn1nc2ccccc2n1` showed a logD of 1.41.

Compound `CCn1nc2ccccc2n1` returned a logD of 2.1.

Turning to `CCCn1nc2ccccc2n1`, the logD is 2.53.

For the compound `CC(C)n1nnc2ccccc21`, the logD amounted to 1.98.

With `CCCCC(C)n1nnc2ccccc21` (stereo not drawn), the logD was 3.44.

In the case of `CCOC(=O)CCCCn1nc2ccccc2n1`, the logD was found to be 2.85.

In turn, `CCOC(=O)CCCCCn1nnc2ccccc21` returned a logD of 2.68.

Consider `NC(=O)CCCCn1nc2ccccc2n1`, for which the logD was found to be 1.01.

As for `CCCCCn1nnc2ccccc21`, the logD turned out to be 3.22.

`CCCCCCn1nc2ccccc2n1` yielded a logD of 4.24.

As for `CCCCn1nnc2ccccc21`, the logD came out at 2.57.

The compound `CCOC(=O)CCn1nnc2ccccc21` returned a logD of 1.6.

With `OCCCn1nnc2ccccc21`, the logD turned out to be 0.91.

For the compound `NC(=O)CCCn1nc2ccccc2n1`, the logD was determined as 0.78.

Compound `OCCn1nc2ccccc2n1` had a logD of 0.92.

For `Cn1nc2ccccc2n1`, the logD was determined as 1.64.

`OCCn1nnc2ccccc21`: the logD is 0.5.

Compound `CCC(C)n1nc2ccccc2n1` (stereo not drawn) showed a logD of 2.95.

On to `CCCC(C)n1nc2ccccc2n1` (stereo not drawn), for which the logD turned out to be 3.42.

For `CCOC(=O)Cn1nnc2ccccc21`, the logD was 1.3.

As to `Cn1nnc2ccccc21`, the logD was 1.13.
